In the supplement of paper PMC4862054:

How the values were obtained:
Conditions in all cases: incubation time: 72 h
[1] = test system: Hs578T; experiment: normalised response (% of control), CellTox Green; higher = less cell death (100 = DMSO, 0 = benzethonium chloride kill control)
Method in brief: (§1)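 A 20 µl suspension of breast cancer cells was seeded into each well of 384-well plates containing compound at 5 concentrations in 10-fold steps over a compound-specific 10,000-fold range. After 72 h incubation, CellTox Green fluorescence (485/520 nm) was read first, and CellTiter-Glo luminescence was read after 10 min at room temperature. Each plate was normalised against 0.1 % DMSO (100) and a positive kill control (0), and each value is the normalised signal at one concentration.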

[2] = test system: HCC1599; experiment: as above
Method in brief: as §1

[3] = test system: DU-4475; experiment: as above
Method in brief: as §1

[4] = test system: MFM-223; experiment: as above
Method in brief: as §1

[5] = test system: BT-549; experiment: as above
Method in brief: as §1

[6] = test system: MCF-10A; experiment: as above
Method in brief: as §1

[7] = test system: HDQ-P1; experiment: as above
Method in brief: as §1

[8] = test system: MDA-MB-468; experiment: as above
Method in brief: as §1

[9] = test system: MDA-MB-231; experiment: as above
Method in brief: as §1

[10] = test system: MDA-MB-436; experiment: as above
Method in brief: as §1

[11] = test system: CAL-51; experiment: as above
Method in brief: as §1

[12] = test system: CAL-148; experiment: as above
Method in brief: as §1

[13] = test system: CAL-85-1; experiment: as above
Method in brief: as §1

[14] = test system: HCC1937; experiment: as above
Method in brief: as §1

[15] = test system: MDA-MB-453; experiment: as above
Method in brief: as §1

[16] = test system: CAL-120; experiment: as above
Method in brief: as §1

[17] = test system: BT-474; experiment: as above
Method in brief: as §1

[18] = test system: SK-BR-3; experiment: normalised response (% of control), CellTiter-Glo; higher = more viable cells (100 = DMSO, 0 = benzethonium chloride kill control)
Procedure: (§2)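 DSRT, 72 h incubation, CellTox Green / CellTiter-Glo readout. Signal is normalised to DMSO and benzethonium chloride controls. Value is the normalised response at dose 3.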

[19] = test system: Hs578T; experiment: as above
Procedure: as §2

[20] = test system: HCC1599; experiment: as above
Procedure: as §2

[21] = test system: DU-4475; experiment: as above
Procedure: as §2

[22] = test system: MFM-223; experiment: as above
Procedure: as §2

[23] = test system: BT-549; experiment: as above
Procedure: as §2

[24] = test system: MCF-10A; experiment: as above
Procedure: as §2

[25] = test system: HCC1143; experiment: as above
Procedure: as §2

[26] = test system: HDQ-P1; experiment: as above
Procedure: as §2

[27] = test system: MDA-MB-468; experiment: as above
Procedure: as §2

[28] = test system: MDA-MB-231; experiment: as above
Procedure: as §2

[29] = test system: MDA-MB-436; experiment: as above
Procedure: as §2

[30] = test system: CAL-51; experiment: as above
Procedure: as §2

[31] = test system: CAL-148; experiment: as above
Procedure: as §2

[32] = test system: CAL-85-1; experiment: as above
Procedure: as §2

[33] = test system: HCC1937; experiment: as above
Procedure: as §2

[34] = test system: MDA-MB-453; experiment: as above
Procedure: as §2

[35] = test system: CAL-120; experiment: as above
Procedure: as §2

[36] = test system: BT-474; experiment: as above
Procedure: as §2

[37] = test system: HCC1143; experiment: normalised response (% of control), CellTox Green; higher = less cell death (100 = DMSO, 0 = benzethonium chloride kill control)
Method in brief: as §1

Row | Compound | normalised response [1] [%] | normalised response [2] [%] | normalised response [3] [%] | normalised response [4] [%] | normalised response [5] [%] | normalised response [6] [%] | normalised response [7] [%] | normalised response [8] [%] | normalised response [9] [%] | normalised response [10] [%] | normalised response [11] [%] | normalised response [12] [%] | normalised response [13] [%] | normalised response [14] [%] | normalised response [15] [%] | normalised response [16] [%] | normalised response [17] [%] | normalised response [18] [%] | normalised response [19] [%] | normalised response [20] [%] | normalised response [21] [%] | normalised response [22] [%] | normalised response [23] [%] | normalised response [24] [%] | normalised response [25] [%] | normalised response [26] [%] | normalised response [27] [%] | normalised response [28] [%] | normalised response [29] [%] | normalised response [30] [%] | normalised response [31] [%] | normalised response [32] [%] | normalised response [33] [%] | normalised response [34] [%] | normalised response [35] [%] | normalised response [36] [%] | normalised response [37] [%]
1 | Nc1cc(C(F)(F)F)c(-c2cc(N3CCOCC3)nc(N3CCOCC3)n2)cn1 [Buparlisib] (100 nM) | 104 | 93.5 | 98.6 | 96.7 | 98.1 | 102 | 96.4 | 163 | 78.2 | 85.7 | 94.8 | 93.1 | 109 | 78.7 | 91 | 96.8 | 99 | 91.2 | 99.3 | 111 | 95.9 | 86.9 | 110 | 88.5 | 99 | 95.2 | 92.1 | 93 | 98.2 | 88.8 | 101 | 101 | 98 | 97.8 | 96.2 | 97.3 | –
2 | Oc1ccc2c(c1)CC[C@H](c1ccccc1)[C@@H]2c1ccc(OCCN2CCCC2)cc1 [Lasofoxifene] (10 nM) | – | 114 | 104 | 102 | 108 | 107 | 90.8 | – | 114 | 116 | 110 | 90.8 | 99.8 | 77 | 110 | 104 | 102 | 112 | 103 | 106 | 107 | 105 | 115 | 108 | 104 | 95.3 | 90.8 | 110 | 109 | 91.3 | 111 | 103 | 95.5 | 99.1 | 114 | 102 | 117
3 | CO[C@H]1C[C@@H]2CC[C@@H](C)[C@@](O)(O2)C(=O)C(=O)N2CCCC[C@H]2C(=O)O[C@H]([C@H](C)C[C@@H]2CC[C@@H](OP(C)(C)=O)[C@H](OC)C2)CC(=O)[C@H](C)/C=C(\C)[C@@H](O)[C@@H](OC)C(=O)[C@H](C)C[C@H](C)/C=C/C=C/C=C/1C [Ridaforolimus] (1 nM) | 81 | 111 | 98.9 | 105 | 84.4 | 94.6 | – | 115 | 107 | 75.3 | 106 | 82.1 | 95.2 | 119 | 101 | 103 | 101 | 73.5 | 71.7 | 88.1 | 92.7 | 84.7 | 68.4 | 107 | 81.1 | 91.7 | 62.1 | 93.7 | 88.3 | 90.9 | 89.3 | 74.4 | 79.2 | 83.8 | 80.5 | 94 | 111
4 | O=P1(N(CCCl)CCCl)NCCCO1 (stereo not given) [Cyclophosphamide] (400 nM) | 84.3 | 98.8 | 99 | 87.4 | 101 | – | – | – | 107 | 104 | 92.2 | 89.6 | 101 | 93.7 | 100 | 102 | 98.5 | 109 | 98.9 | 111 | 105 | 102 | 104 | 103 | 98.7 | 99.6 | 102 | 98.3 | 97.1 | 93.8 | 102 | 99.9 | 94.6 | 108 | 97.8 | 99 | 116
5 | COc1cc2/c(=N/c3ccc(Br)cc3F)nc[nH]c2cc1OCC1CCN(C)CC1 [Vandetanib] (10 nM) | – | 81.1 | 91.9 | 99.1 | 98.2 | 83.3 | – | 104 | 85.3 | 55 | 95.5 | 89.6 | 101 | 84.5 | 80.8 | 97 | 95.4 | 82.3 | 94.5 | 85.7 | 93.2 | 86.5 | 98 | 78.3 | 92.1 | 91.7 | 87 | 92.5 | 97.2 | 87.1 | 89 | 90.2 | 94.6 | 72.2 | 95.7 | 87.1 | 91.8
6 | CN(C)c1nc(N(C)C)nc(N(C)C)n1 [Altretamine] (100 nM) | – | 104 | 104 | 98.5 | 89.1 | 101 | 64.1 | 123 | 118 | 102 | 109 | 106 | 103 | 110 | 100 | 106 | 102 | 112 | 106 | 99.9 | 104 | 106 | 95.4 | 105 | 97.9 | 98.2 | 99 | 99.5 | 99.1 | 107 | 106 | 102 | 99.2 | 105 | 103 | 98.4 | 113
7 | O=C(Nc1ccncc1)C(=O)c1cn(Cc2ccc(Cl)cc2)c2ccccc12 [Indibulin] (100 nM) | – | 111 | 105 | 105 | 94.8 | 94.4 | 111 | 136 | 105 | 90.3 | 100 | 105 | 81.3 | 98.3 | 100 | 93.1 | 101 | 96.2 | 100 | 89.1 | 106 | 98.5 | 81.8 | 108 | 98.5 | 96.8 | 95.8 | 106 | 92 | 62 | 113 | 87.7 | 91.5 | 89.1 | 97.5 | 98.1 | 120
8 | CCOC(=O)CCNc1cc(N2CCc3ccccc3CC2)nc(-c2ccccn2)n1 [GSK-J4] (1000 nM) | 80.2 | 95.1 | 106 | 86.8 | 97.1 | 103 | 89.9 | 110 | 112 | 84.1 | 86.2 | 97.7 | 113 | 92.9 | 102 | 97 | 100 | 98.5 | 98.3 | 100 | 99.5 | 93.6 | 47.3 | 106 | 103 | 95.4 | 67.7 | 95.8 | 89.8 | 57.2 | 92.7 | 96.9 | 84.7 | 70.3 | 105 | 99.7 | –
9 | COc1cc2ncnc(Nc3ccc(F)c(Cl)c3)c2cc1OCCCN1CCOCC1 [Gefitinib] (100 nM) | 68 | 102 | 99.9 | 73.2 | 94.8 | 101 | – | 92.2 | 70.7 | 98.3 | 89.6 | 87.3 | 93.8 | 87.2 | 101 | 83.3 | 100 | 94.8 | 99.5 | 82.5 | 103 | 101 | 91.8 | 59.3 | 103 | 80.8 | 96 | 106 | 104 | 90.7 | 113 | 88 | 93.3 | 96.5 | 99.4 | 96.5 | 116
